# Test results: publication PMC10065276, “Enhanced therapeutic window for antimicrobial Pept-ins by investigating their structure-activity relationship” (PLOS ONE, 2023)
# Residues, ends and D or L forms follow the SMILES beside them.
# How the values were obtained:
# [1] = test system: HEK 293T cells; assay: CellTiter Blue assay; assay type: cell-based, human; conditions: about 16 hours treatment, viability normalised to vehicle
# Experimental: HEK 293T cells (ATCC CRL-3216) were grown in DMEM medium, supplemented with 10% FBS, 1 mM sodium pyruvate, non-essential amino acids. 100 μL of 10 000 cells were grown in flat-bottom 96-well plates (Fischer Scientific) overnight until cells are attached to the plate. Peptides were dissolved with Mini-plasco Nacl 0.9% (B. Braun) to 2 mg/mL and diluted to indicated concentrations using cell culture medium. Cells were treated by adding 100 μL peptides to each well for about 16 hours. Cells lysed with 1% Triton X-100 was included as a positive control. The toxicity of the peptide treatments was evaluated using the CellTiter-Blue Cell Viability Assay according to the instructions of the manufacturer (Promega, USA). The metabolic activity of viable cells is measured by recording fluorescence intensity at 590 nm after excitation at 560 nm. Cell viability is determined by normalising the fluorescence intensity of peptide- or triton-treated cells to the vehicle-treated sample.
# [2] = test system: E. coli BL21; conditions: BL21, 17 h
# Summary of the method: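 EUCAST broth microdilution in Mueller-Hinton medium; end-exponential culture diluted to 0.005 McF (~1.5x10^6 CFU/mL) before 1:1 mixing with two-fold peptide dilutions (0.75 to 100 μg/mL), triplicates.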
SMILES,toxicity on HEK 293T cells [1],BL21 MIC [2] [µg/mL]
CC(C)C[C@H](NC(=O)CNC(=O)[C@H](CCCNC(=N)N)NC(=O)[C@@H](NC(=O)CNC(=O)[C@H](CCCNC(=N)N)NC(=O)[C@H](CCCNC(=N)N)NC(=O)[C@@H](NC(=O)[C@H](CC(C)C)NC(=O)[C@H](C)NC(=O)[C@H](CC(C)C)NC(=O)CNC(=O)[C@H](CC(C)C)NC(=O)CNC(=O)[C@@H](N)CCCNC(=N)N)C(C)C)C(C)C)C(=O)NCC(=O)N[C@@H](CC(C)C)C(=O)N[C@@H](C)C(=O)N[C@@H](CC(C)C)C(=O)N[C@H](C(=O)N[C@@H](CCCNC(=N)N)C(=O)N[C@@H](CCCNC(=N)N)C(=O)O)C(C)C [Peptide P2_GV] (H-RGLGLALVRRGVRGLGLALVRR-OH),induced toxicity effects,–
CC(C)C[C@H](NC(=O)CNC(=O)[C@H](CCCNC(=N)N)NC(=O)[C@@H]1CCCN1C(=O)[C@H](CCCNC(=N)N)NC(=O)[C@H](CCCNC(=N)N)NC(=O)[C@@H](NC(=O)[C@H](CC(C)C)NC(=O)[C@H](C)NC(=O)[C@H](CC(C)C)NC(=O)CNC(=O)[C@H](CC(C)C)NC(=O)CNC(=O)[C@@H](NC(=O)[C@H](Cc1ccccc1)NC(=O)[C@@H](NC(=O)[C@@H](N)CCCNC(=N)N)C(C)C)C(C)C)C(C)C)C(=O)NCC(=O)N[C@@H](CC(C)C)C(=O)N[C@@H](C)C(=O)N[C@@H](CC(C)C)C(=O)N[C@H](C(=O)N[C@@H](CCCNC(=N)N)C(=O)N[C@@H](CCCNC(=N)N)C(=O)O)C(C)C [Peptide P2_VFV] (H-RVFVGLGLALVRRPRGLGLALVRR-OH),higher toxicity at 400 μg/mL and 200 μg/mL than P2,–
CC(C)C[C@H](NC(=O)CNC(=O)[C@@H](N)CCCNC(=N)N)C(=O)NCC(=O)N[C@@H](CC(C)C)C(=O)N[C@@H](C)C(=O)N[C@@H](CC(C)C)C(=O)N[C@H](C(=O)N[C@@H](CCCNC(=N)N)C(=O)N[C@@H](CCCNC(=N)N)C(=O)N1CCC[C@H]1C(=O)N[C@@H](CCCNC(=N)N)C(=O)NCC(=O)N[C@@H](C)C(=O)NCC(=O)N[C@@H](CC(C)C)C(=O)N[C@@H](C)C(=O)N[C@@H](CC(C)C)C(=O)N[C@H](C(=O)N[C@@H](CCCNC(=N)N)C(=O)N[C@@H](CCCNC(=N)N)C(=O)O)C(C)C)C(C)C [Peptide P2_L14A] (H-RGLGLALVRRPRGAGLALVRR-OH),–,25.00
CC(C)C[C@H](NC(=O)CNC(=O)[C@H](CCCNC(=N)N)NC(=O)[C@@H]1CCCN1C(=O)[C@H](CCCNC(=N)N)NC(=O)[C@H](CCCNC(=N)N)NC(=O)[C@H](CO)NC(=O)[C@H](CC(C)C)NC(=O)[C@H](C)NC(=O)[C@H](CC(C)C)NC(=O)CNC(=O)[C@H](CC(C)C)NC(=O)CNC(=O)[C@@H](N)CCCNC(=N)N)C(=O)NCC(=O)N[C@@H](CC(C)C)C(=O)N[C@@H](C)C(=O)N[C@@H](CC(C)C)C(=O)N[C@@H](CO)C(=O)N[C@@H](CCCNC(=N)N)C(=O)N[C@@H](CCCNC(=N)N)C(=O)O [V7S (P2)] (H-RGLGLALSRRPRGLGLALSRR-OH),–,100.00
CC(C)C[C@H](NC(=O)CNC(=O)[C@H](CCCNC(=N)N)NC(=O)[C@@H]1CCCN1C(=O)[C@H](CCCNC(=N)N)NC(=O)[C@H](CCCNC(=N)N)NC(=O)[C@@H](NC(=O)[C@H](CC(C)C)NC(=O)[C@H](CC(C)C)NC(=O)[C@H](CC(C)C)NC(=O)CNC(=O)[C@H](CC(C)C)NC(=O)CNC(=O)[C@@H](N)CCCNC(=N)N)C(C)C)C(=O)NCC(=O)N[C@@H](CC(C)C)C(=O)N[C@@H](CC(C)C)C(=O)N[C@@H](CC(C)C)C(=O)N[C@H](C(=O)N[C@@H](CCCNC(=N)N)C(=O)N[C@@H](CCCNC(=N)N)C(=O)O)C(C)C [A5L (P2)] (H-RGLGLLLVRRPRGLGLLLVRR-OH),–,12.50
CC[C@H](C)[C@H](NC(=O)CNC(=O)[C@H](CC(C)C)NC(=O)[C@H](CCCNC(=N)N)NC(=O)[C@@H]1CCCN1C(=O)[C@H](CCCNC(=N)N)NC(=O)[C@H](C)NC(=O)[C@H](CC(C)C)NC(=O)[C@H](C)NC(=O)[C@@H](NC(=O)[C@H](C)NC(=O)[C@@H](NC(=O)CNC(=O)[C@H](CC(C)C)NC(=O)[C@@H](N)CCCNC(=N)N)[C@@H](C)CC)C(C)C)C(=O)N[C@@H](C)C(=O)N[C@H](C(=O)N[C@@H](C)C(=O)N[C@@H](CC(C)C)C(=O)N[C@@H](C)C(=O)N[C@@H](CCCNC(=N)N)C(=O)O)C(C)C [Peptide P33_4R_3] (H-RLGIAVALARPRLGIAVALAR-OH),–,50.00
CC[C@H](C)[C@H](NC(=O)[C@H](C)NC(=O)[C@H](CCCNC(=N)N)NC(=O)[C@@H](NC(=O)[C@H](CC(C)C)NC(=O)[C@H](C)NC(=O)[C@H](CC(C)C)NC(=O)CNC(=O)[C@H](CC(C)C)NC(=O)CNC(=O)[C@@H](N)CCCNC(=N)N)C(C)C)C(=O)N[C@@H](CCCNC(=N)N)C(=O)NCC(=O)N[C@@H](CC(C)C)C(=O)NCC(=O)N[C@@H](CC(C)C)C(=O)N[C@@H](C)C(=O)N[C@@H](CC(C)C)C(=O)N[C@H](C(=O)N[C@@H](C)C(=O)N[C@@H](CCCNC(=N)N)C(=O)O)C(C)C [Peptide P2_4R_I] (H-RGLGLALVRAIRGLGLALVAR-OH),–,12.50
CC[C@H](C)[C@H](NC(=O)CNC(=O)[C@H](CC(C)C)NC(=O)[C@H](CCCNC(=N)N)NC(=O)[C@@H]1CCCN1C(=O)[C@H](CCCNC(=N)N)NC(=O)[C@H](CCCNC(=N)N)NC(=O)[C@H](CC(C)C)NC(=O)[C@H](C)NC(=O)[C@@H](NC(=O)[C@H](C)NC(=O)[C@@H](NC(=O)CNC(=O)[C@H](CC(C)C)NC(=O)[C@H](C)N)[C@@H](C)CC)C(C)C)C(=O)N[C@@H](C)C(=O)N[C@H](C(=O)N[C@@H](C)C(=O)N[C@@H](CC(C)C)C(=O)N[C@@H](C)C(=O)N[C@@H](CCCNC(=N)N)C(=O)O)C(C)C [Peptide P33_4R_2] (H-ALGIAVALRRPRLGIAVALAR-OH),–,25.00
CSCC[C@H](NC(=O)[C@H](CC(C)C)NC(=O)CNC(=O)[C@H](CC(C)C)NC(=O)CNC(=O)[C@H](CCCNC(=N)N)NC(=O)[C@@H]1CCCN1C(=O)[C@H](CCCNC(=N)N)NC(=O)[C@H](CCCNC(=N)N)NC(=O)[C@@H](NC(=O)[C@H](CC(C)C)NC(=O)[C@H](C)NC(=O)[C@H](CC(C)C)NC(=O)CNC(=O)[C@H](CC(C)C)NC(=O)CNC(=O)[C@@H](N)CCCNC(=N)N)C(C)C)C(=O)N[C@@H](CC(C)C)C(=O)N[C@H](C(=O)N[C@@H](CCCNC(=N)N)C(=O)N[C@@H](CCCNC(=N)N)C(=O)O)C(C)C [Peptide P2_A5M] (H-RGLGLALVRRPRGLGLMLVRR-OH),–,6.25
CC[C@H](C)[C@H](NC(=O)CNC(=O)[C@H](CC(C)C)NC(=O)[C@H](C)NC(=O)[C@@H]1CCCN1C(=O)[C@H](CCCNC(=N)N)NC(=O)[C@H](CCCNC(=N)N)NC(=O)[C@H](CC(C)C)NC(=O)[C@H](C)NC(=O)[C@@H](NC(=O)[C@H](C)NC(=O)[C@@H](NC(=O)CNC(=O)[C@H](CC(C)C)NC(=O)[C@@H](N)CCCNC(=N)N)[C@@H](C)CC)C(C)C)C(=O)N[C@@H](C)C(=O)N[C@H](C(=O)N[C@@H](C)C(=O)N[C@@H](CC(C)C)C(=O)N[C@@H](C)C(=O)N[C@@H](CCCNC(=N)N)C(=O)O)C(C)C [Peptide P33_4R_5] (H-RLGIAVALRRPALGIAVALAR-OH),–,12.50
CC[C@H](C)[C@H](NC(=O)CNC(=O)[C@H](CC(C)C)NC(=O)[C@H](CCCNC(=N)N)NC(=O)[C@@H]1CCCN1C(=O)[C@H](CCCNC(=N)N)NC(=O)[C@H](CCCNC(=N)N)NC(=O)[C@H](CC(C)C)NC(=O)[C@H](C)NC(=O)[C@@H](NC(=O)[C@H](C)NC(=O)[C@@H](NC(=O)[C@H](C)NC(=O)[C@H](CC(C)C)NC(=O)[C@@H](N)CCCNC(=N)N)[C@@H](C)CC)C(C)C)C(=O)N[C@@H](C)C(=O)N[C@H](C(=O)N[C@@H](C)C(=O)N[C@@H](CC(C)C)C(=O)N[C@@H](CCCNC(=N)N)C(=O)N[C@@H](CCCNC(=N)N)C(=O)O)C(C)C [Peptide P33-G3A] (H-RLAIAVALRRPRLGIAVALRR-OH),–,6.25
CC(C)C[C@H](NC(=O)CNC(=O)[C@H](CCCNC(=N)N)NC(=O)[C@@H]1CCCN1C(=O)[C@H](CCCNC(=N)N)NC(=O)[C@H](CCCNC(=N)N)NC(=O)[C@@H](NC(=O)[C@H](CC(C)C)NC(=O)[C@H](C)NC(=O)[C@H](CC(C)C)NC(=O)CNC(=O)[C@H](CC(C)C)NC(=O)CNC(=O)[C@@H](N)CCCNC(=N)N)C(C)C)C(=O)NCC(=O)N[C@@H](CC(C)C)C(=O)N[C@@H](Cc1c[nH]c2ccccc12)C(=O)N[C@@H](CC(C)C)C(=O)N[C@H](C(=O)N[C@@H](CCCNC(=N)N)C(=O)N[C@@H](CCCNC(=N)N)C(=O)O)C(C)C [Peptide P2_A5W] (H-RGLGLALVRRPRGLGLWLVRR-OH),–,6.25
"CC(C)C[C@H](NC(=O)CNC(=O)[C@H](CCCNC(=N)N)NC(=O)[C@@H]1CCCN1C(=O)[C@H](CCCNC(=N)N)NC(=O)[C@H](C)NC(=O)[C@@H](NC(=O)[C@H](CC(C)C)NC(=O)[C@H](C)NC(=O)[C@H](CC(C)C)NC(=O)CNC(=O)[C@H](CC(C)C)NC(=O)CNC(=O)[C@@H](N)CCCNC(=N)N)C(C)C)C(=O)NCC(=O)N[C@@H](CC(C)C)C(=O)N[C@@H](C)C(=O)N[C@@H](CC(C)C)C(=O)N[C@H](C(=O)N[C@@H](C)C(=O)N[C@@H](CCCNC(=N)N)C(=O)O)C(C)C [R9A, R20A] (H-RGLGLALVARPRGLGLALVAR-OH)",–,50.00
